Source: article PMC7011792 (Journal of Enzyme Inhibition and Medicinal Chemistry, 2017)

Legend:
[1] = biological target: T1, AChE (EC 3.1.1.7) from human (Homo sapiens, UniProt P22303); assay: Human AChE inhibition, Ellman's method; format: biochemical
T1 construct: purchased Sigma-Aldrich C1682
Method: (§1) AChE (EC 3.1.1.7, Type VI-S, from electric eel, C3389; from human, C1682) and BuChE (EC 3.1.1.8, from equine serum, C0663; from human, B4186), 5,5'-dithiobis (2-nitrobenzoic acid) (DTNB, D218200), acetylthiocholine iodide (ATC, A5751), and butyrylthiocholine iodide (BTC, B3253) were obtained from Sigma-Aldrich (St. Louis, MO).
(§2) The inhibitory effects of the synthesised compounds in this paper were evaluated according to our previously reported method. Briefly, AChE/BuChE stock solution was diluted to give 2.5 units/mL (for eeAChE, eqBuChE, and huAChE) or 0.5 units/mL for huBuChE. ATC/BTC iodide solution (0.075 M) was prepared in deionised water. DTNB solution (0.01 M) was prepared using water containing 0.15% (w/v) sodium bicarbonate. The assay buffer was prepared as follows: potassium dihydrogen phosphate (1.36 g, 10 mmol) was dissolved in 100 ml of water. The pH of the solution was then adjusted to 8.0 ± 0.1 with KOH. Stock solutions of the test samples were dissolved in ethanol to give a final concentration of 10^−4 M when diluted to the final volume of 3.32 ml. For each compound, a dilution series of at least five different concentrations (normally 10^−5–10^−9 M) were prepared.
(§3) For measurement, a cuvette containing 3.0 ml of phosphate buffer, 100 µL of AChE or BuChE, 100 µL of DTNB, and 100 µL of the test compound solution were added in sequence. The reaction was initiated after adding 20 µL of ATC or BTC, and the solution was mixed immediately. Two minutes (eeAChE and eqBuChE) or 15 min (huAChE and huBuChE) after ATC or BTC addition, the absorption was measured at 25 °C (eeAChE and eqBuChE) or 37 °C (huAChE and huBuChE) at 412 nm, using a Shimadzu 160 spectrophotometer. For the reference value, 100 µL of water replaced the test compound solution. For the blank control, additionally 100 µL of water replaced the enzyme solution. The measurement for each concentration was assayed in triplicate. GraphPad Prism 5 was used for data processing. The inhibition curve was fitted by plotting percentage enzyme activity (100% for the reference) versus logarithm of test compound concentration. The IC50 values were calculated according to the curve, and the data were shown in mean ± SEM.

[2] = biological target: T2, BuChE (EC 3.1.1.8) from human (Homo sapiens, UniProt P06276); assay: Human BuChE inhibition, Ellman's method; format: biochemical; details: huBuChE; mean ± SEM
T2 construct: purchased Sigma-Aldrich B4186
Method: as §1, §2
as §3, with “The inhibition curve was fitted by plotting percentage enzyme activity (100% for the reference) versus logarithm of test compound concentration.” left out

T1 sequence (P22303 32-614): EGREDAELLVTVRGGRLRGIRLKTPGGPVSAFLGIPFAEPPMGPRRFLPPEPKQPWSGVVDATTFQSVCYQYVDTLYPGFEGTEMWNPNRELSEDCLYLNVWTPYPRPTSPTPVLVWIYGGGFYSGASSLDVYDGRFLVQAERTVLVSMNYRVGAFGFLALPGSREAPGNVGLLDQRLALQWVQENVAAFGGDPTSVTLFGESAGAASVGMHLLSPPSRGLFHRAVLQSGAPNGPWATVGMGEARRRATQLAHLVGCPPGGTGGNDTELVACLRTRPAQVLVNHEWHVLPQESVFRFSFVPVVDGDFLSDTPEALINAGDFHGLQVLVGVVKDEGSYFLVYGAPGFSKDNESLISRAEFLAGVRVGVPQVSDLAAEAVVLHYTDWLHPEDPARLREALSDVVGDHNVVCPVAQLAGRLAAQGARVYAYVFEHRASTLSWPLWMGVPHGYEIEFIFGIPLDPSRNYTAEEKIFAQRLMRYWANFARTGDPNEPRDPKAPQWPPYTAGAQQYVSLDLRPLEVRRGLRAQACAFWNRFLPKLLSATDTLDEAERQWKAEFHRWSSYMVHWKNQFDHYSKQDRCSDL
T2 sequence (P06276 29-602): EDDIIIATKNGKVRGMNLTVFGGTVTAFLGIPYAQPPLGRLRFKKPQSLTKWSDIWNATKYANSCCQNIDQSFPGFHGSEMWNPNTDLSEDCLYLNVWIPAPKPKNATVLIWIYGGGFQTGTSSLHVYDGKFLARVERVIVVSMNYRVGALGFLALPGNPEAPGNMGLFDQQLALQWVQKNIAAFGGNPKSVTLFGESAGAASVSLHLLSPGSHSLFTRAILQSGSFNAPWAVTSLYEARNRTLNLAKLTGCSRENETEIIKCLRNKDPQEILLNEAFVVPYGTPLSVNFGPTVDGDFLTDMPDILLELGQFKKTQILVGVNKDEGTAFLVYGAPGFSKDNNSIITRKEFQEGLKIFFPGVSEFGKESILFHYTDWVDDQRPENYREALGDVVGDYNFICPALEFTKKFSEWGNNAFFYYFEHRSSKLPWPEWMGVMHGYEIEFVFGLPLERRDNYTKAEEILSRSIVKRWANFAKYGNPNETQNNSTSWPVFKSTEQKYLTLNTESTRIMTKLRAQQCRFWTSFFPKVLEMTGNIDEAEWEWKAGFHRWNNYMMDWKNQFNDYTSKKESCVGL

O=C(/C=C/c1ccc([N+](=O)[O-])cc1)NCCCCCCNc1c2c(nc3ccccc13)CCCC2 [Compound 19, (E)-3-(4-nitrophenyl)-N-(6-((1,2,3,4-tetrahydroacridin-9-yl)amino)hexyl)acrylamide] was tested, and the IC50 ([1]; huAChE, mean ± SEM) was 10.2 nM, the “Selectivity index (SI) = BuChE IC50/AChE IC50, human enzymes” value ([1]; huBuChE IC50 / huAChE IC50) was 0.6 and the IC50 [2] was 6.3 nM.
